Several values for one entry are separate records, joined by “and”; a condition that tells them apart may be missing. Identical values can stand only once.
Tested on: coronary arteries
Test: Drug-induced (S+U) coronary vasospasm in ovariectomized monkeys with E2 plus P or MPA implants
Assay type: in vivo, rhesus monkeys (Macaca mulatta)
Procedure: Twelve rhesus monkeys (Macaca mulatta), aged 8 to 16 years and with weights of 5-7 kg, were ovariectomized at least 3 months prior to beginning of the study and selected randomly for one of two treatments. After documenting the lack of cardiovascular disease or previous exposure to atherogenic diet and after a normal physical examination (including blood chemistry), monkeys received subdermal sylastic implants containing 200 mg of E2. Two weeks later, sylastic implants containing either 400 mg of P or 400 mg of MPA were additionally implanted. All steroids were purchased from Steraloids (Wilton, N.H.). Both estrogen and progestin implants, providing sustained release steroids, remained in place through the catheterization study 6 weeks after beginning the study. Venous blood sample (5 ml) were collected just prior to beginning the study at weekly intervals for measurements of serum levels of E2, P, and MPA. Target levels of 80-160 pg/ml for E2, 4000-8000 pg/ml for P, and 400-800 pg/ml for MPA were based on levels that are effective by reproductive system indices in women and monkeys. Levels were measured in blood serum at catheterization by specific radio-immunoassays.
Angiography was carried out under isoflurane (0.75-1.25%) general anesthesia with 70% O2 and 30% N2O, and body temperature supported with a heating pad. After ketamine sedation (10 mg/kg) and endotracheal tube placement, both femoral arteries were cannulated for simultaneous measurement of systemic blood pressure and coronary catheterization. Intravenous anticoagulation with 1000 units of heparin and fluid replacement with 75-150 ml of lactated Ringer's solution, and if needed 10-50 ml of dextran, to reach a minimum control diastolic blood pressure of 60 mm Hg.
Coronary arteries (left anterior descending or left circumflex) of the monkeys were catheterized and agents injected as described above in Example 1.
Statistical analysis was carried out by Student's t-test (non-paired) or Chi-square, with the p<0.05 level accepted as significant.
All monkeys were treated with estradiol 17β via sylastic implants for the entire treatment period. P or MPA was added during the last 2 weeks as a second sylastic implant, to simulate the luteal phase (P) or hormone replacement therapy (MPA). All steroid implants were left in place, including during angiography. Steroid measurements were made by RIA on serum samples taken just before angiography. Indicates significant differences between P and MPA at p 0.05 (N=6 for each group).

[1] = minimum, 5-20 minutes after IC S + U

## CC(=O)[C@H]1CC[C@H]2[C@@H]3CCC4=CC(=O)CC[C@]4(C)[C@H]3CC[C@]12C [P, progesterone]
0.18 μg ACh IC
  diameter in dilator response to low dose ACh: 1.20±0.25 mm
S+U IC challenges, E2 implant plus P or MPA implant, N=6 per group
  Vasospasms (incidence): 0 of 6 and 0/6
S+U stimulation
  reduction of minimum (φ) from controls after S+U: 67%
Before S + U
  Control DBP in mm Hg: 60 ± 5 mm Hg
  Control Heart rate in bpm: 130 ± 24 bpm
Minimum diameter 3 to 5 minutes after IC S + U
  S + U (φ) minimum: 0.37±0.02 mm
[1]
  S + U stim DBP in min Hg: 30 ± 12 min Hg
  S + U stim SBP in mm Hg: 51 ± 18 mm Hg
  S + U stim heart rate in bpm: 66 ± 34 bpm
Proximal LAD or left circumflex diameter under control conditions, E2+P or E2+MPA group
  Control (φ) in mm: 1.14±0.21 mm
